# Measurements taken from patent US20240270821A1, “GIP/GLP1/GCG TRI-RECEPTOR AGONISTS AND USES THEREOF” (priority 2023, published 2024).
# Starred links: 1 amine or outer side, 2 acyl side, 3 side chain; linkers in the order of their positions; H or OH if unused. Non-standard residues stand in square brackets, D forms with d. Residues, ends and D or L forms follow the SMILES beside them. Groups on a side chain read outwards from the residue. *: point of attachment. C18 diacid = O=C(O)CCCCCCCCCCCCCCCCC(=O)*; αMePhe(2-F) = C[C@](N)(Cc1ccccc1F)C(=O)O; γGlu = O=C(O)[C@H](CCC(=O)[*:2])N[*:1]; 4Pal = N[C@@H](Cc1ccncc1)C(=O)O; αMeL = CC(C)C[C@](C)(N)C(=O)O; αMeS = C[C@](N)(CO)C(=O)O; Orn = NCCC[C@H](N)C(=O)O; AEEA = NCCOCCOCC(=O)O; Aib = CC(C)(N)C(=O)O
# Key:
# Type in all cases: cell-based
# human GcgR = human GcgR (Homo sapiens, UniProt P47871); experiment: Functional cAMP activity in the presence of 1% HSA; settings: read-out: cAMP Rel EC50, hGcgR
# Sequence of human GcgR (P47871 26-477): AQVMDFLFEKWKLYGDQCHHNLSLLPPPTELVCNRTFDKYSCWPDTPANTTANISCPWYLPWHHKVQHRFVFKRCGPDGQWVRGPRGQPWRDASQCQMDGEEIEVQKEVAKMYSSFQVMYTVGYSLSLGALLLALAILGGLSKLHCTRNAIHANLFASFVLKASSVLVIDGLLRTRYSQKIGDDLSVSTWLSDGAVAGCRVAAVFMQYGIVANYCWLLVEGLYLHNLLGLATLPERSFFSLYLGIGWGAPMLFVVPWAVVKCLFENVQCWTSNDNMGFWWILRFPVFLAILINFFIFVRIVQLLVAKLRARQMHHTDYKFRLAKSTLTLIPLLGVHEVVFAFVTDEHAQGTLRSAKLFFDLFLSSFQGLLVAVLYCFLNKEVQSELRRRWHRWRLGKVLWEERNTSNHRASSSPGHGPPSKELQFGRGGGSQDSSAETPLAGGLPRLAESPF
# hGcgR = hGcgR (Homo sapiens, UniProt P47871); experiment: Functional cAMP activation in the presence of 0.1% casein (no HSA); settings: read-out: Relative cAMP EC50, hGcgR;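 also: intracellular cAMP rise after 30 min at 37 °C, read by HTRF against a cAMP standard curve, scaled from buffer only (0%) to maximal control ligand response (100%)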
# Sequence of hGcgR (P47871 26-477): as above
# hGLP-1R [1] = biological target: T1, hGLP-1R (Homo sapiens, UniProt P43220); experiment: Functional cAMP activity in the presence of 1% HSA; settings: read-out: cAMP Rel EC50, hGLP-1R
# T1 sequence (P43220 24-463): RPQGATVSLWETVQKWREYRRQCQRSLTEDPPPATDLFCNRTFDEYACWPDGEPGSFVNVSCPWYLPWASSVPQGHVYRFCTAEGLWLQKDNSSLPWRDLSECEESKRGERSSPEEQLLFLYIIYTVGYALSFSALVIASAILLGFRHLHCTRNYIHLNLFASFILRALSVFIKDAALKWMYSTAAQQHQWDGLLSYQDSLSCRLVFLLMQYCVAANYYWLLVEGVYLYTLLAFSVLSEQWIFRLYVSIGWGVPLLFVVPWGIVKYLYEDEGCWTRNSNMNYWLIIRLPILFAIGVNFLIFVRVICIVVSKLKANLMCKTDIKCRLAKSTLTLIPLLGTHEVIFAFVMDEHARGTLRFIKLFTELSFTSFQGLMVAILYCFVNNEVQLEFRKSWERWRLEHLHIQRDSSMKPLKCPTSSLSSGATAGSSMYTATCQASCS
# hGIPR [2] = biological target: T2, hGIPR (Homo sapiens, UniProt P48546); experiment: Functional cAMP activity in the presence of 1% HSA; settings: read-out: cAMP Rel EC50, hGIPR
# T2 sequence (P48546 22-466): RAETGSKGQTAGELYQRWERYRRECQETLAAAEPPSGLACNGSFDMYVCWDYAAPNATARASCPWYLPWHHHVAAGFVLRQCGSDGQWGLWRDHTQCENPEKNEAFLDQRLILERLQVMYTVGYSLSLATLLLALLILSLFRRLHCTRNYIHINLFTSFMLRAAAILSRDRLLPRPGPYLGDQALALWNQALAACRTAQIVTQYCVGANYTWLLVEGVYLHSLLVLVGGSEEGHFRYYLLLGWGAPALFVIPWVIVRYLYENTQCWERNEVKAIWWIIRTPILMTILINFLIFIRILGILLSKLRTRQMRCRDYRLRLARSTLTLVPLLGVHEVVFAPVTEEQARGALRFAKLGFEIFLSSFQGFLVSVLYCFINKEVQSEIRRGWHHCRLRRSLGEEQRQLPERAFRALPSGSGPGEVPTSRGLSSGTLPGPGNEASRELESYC
# hGIPR [3] = biological target: T2, hGIPR; experiment: Functional cAMP activation in the presence of 0.1% casein (no HSA); settings: read-out: Relative cAMP EC50, hGIPR;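 as to Relative cAMP EC50, hGIPR: intracellular cAMP rise after 30 min at 37 °C read by HTRF against a standard curve, scaled between buffer alone (0%) and top control ligand concentration (100%), four-parameter fit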;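 as to Relative cAMP EC50, hGLP-1R: intracellular cAMP rise after 30 min at 37 °C read by HTRF, normalized between buffer only (0%) and maximal control ligand (100%), four-parameter variable-slope fit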
# hGLP-1R [4] = biological target: T1, hGLP-1R; experiment: as above; settings: read-out: Relative cAMP EC50, hGLP-1R
EC50 (human GcgR) [nM],EC50 (hGcgR) [nM],EC50 (hGLP-1R [1]) [nM],EC50 (hGIPR [2]) [nM],EC50 (hGIPR [3]) [nM],EC50 (hGLP-1R [4]) [nM],SMILES
73.6,1.21,12.6,2.06,0.0122,0.179,CC[C@H](C)[C@H](NC(=O)[C@H](CC(C)C)NC(=O)[C@H](Cc1ccc(O)cc1)NC(=O)[C@H](CCC(=O)O)NC(=O)[C@@H](NC(=O)[C@H](Cc1ccccc1)NC(=O)[C@H](CCCN)NC(=O)C(C)(C)NC(=O)[C@H](CCC(N)=O)NC(=O)[C@H](C)NC(=O)[C@H](CCCCNC(=O)COCCOCCNC(=O)CC[C@H](NC(=O)CCCCCCCCCCCCCCCCC(=O)O)C(=O)O)NC(=O)[C@H](CCCN)NC(=O)[C@H](CC(=O)O)NC(=O)[C@H](CC(C)C)NC(=O)[C@](C)(CC(C)C)NC(=O)[C@@H](NC(=O)[C@](C)(CO)NC(=O)[C@H](Cc1ccncc1)NC(=O)[C@H](CC(=O)O)NC(=O)[C@H](CO)NC(=O)[C@@H](NC(=O)[C@](C)(Cc1ccccc1F)NC(=O)[C@@H](NC(=O)CNC(=O)[C@H](CCC(N)=O)NC(=O)C(C)(C)NC(=O)[C@@H](N)Cc1ccc(O)cc1)[C@@H](C)O)[C@@H](C)O)[C@@H](C)CC)[C@@H](C)CC)C(=O)N[C@@H](CCC(=O)O)C(=O)NCC(=O)NCC(=O)N1CCC[C@H]1C(=O)N[C@@H](CO)C(=O)N[C@@H](CO)C(=O)NCC(=O)N[C@@H](CCC(=O)O)C(=O)N1CCC[C@H]1C(=O)N1CCC[C@H]1C(=O)N1CCC[C@H]1C(=O)N[C@@H](CCC(=O)O)C(N)=O [Example 459] (H-Y[Aib]QGT[αMePhe(2-F)]TSD[4Pal][αMeS]I[αMeL]LD[Orn]K([AEEA-γGlu-C18 diacid])AQ[Aib][Orn]FIEYLIEGGPSSGEPPPE-NH2)
142,1.89,31.1,8.93,0.0624,0.636,CC[C@H](C)[C@H](NC(=O)[C@H](Cc1ccccc1)NC(=O)[C@H](CCCN)NC(=O)C(C)(C)NC(=O)[C@H](CCC(N)=O)NC(=O)[C@H](C)NC(=O)[C@H](CCCCNC(=O)COCCOCCNC(=O)CC[C@H](NC(=O)CCCCCCCCCCCCCCCCC(=O)O)C(=O)O)NC(=O)[C@H](CCCN)NC(=O)[C@H](CC(=O)O)NC(=O)[C@H](CC(C)C)NC(=O)[C@](C)(CC(C)C)NC(=O)[C@@H](NC(=O)[C@](C)(CO)NC(=O)[C@H](Cc1ccncc1)NC(=O)[C@H](CC(=O)O)NC(=O)[C@H](CO)NC(=O)[C@@H](NC(=O)[C@](C)(Cc1ccccc1F)NC(=O)[C@@H](NC(=O)CNC(=O)[C@H](CCC(N)=O)NC(=O)C(C)(C)NC(=O)[C@@H](N)Cc1ccc(O)cc1)[C@@H](C)O)[C@@H](C)O)[C@@H](C)CC)C(=O)N[C@H](CCC(=O)O)C(=O)N[C@@H](Cc1ccc(O)cc1)C(=O)N[C@@H](CC(C)C)C(=O)N[C@@H](CC(C)C)C(=O)N[C@@H](CCC(=O)O)C(=O)NCC(=O)NCC(=O)N1CCC[C@H]1C(=O)N[C@@H](CO)C(=O)N[C@@H](CO)C(=O)NCC(=O)N[C@@H](CCC(=O)O)C(=O)N1CCC[C@H]1C(=O)N1CCC[C@H]1C(=O)N1CCC[C@H]1C(=O)N[C@@H](CCC(=O)O)C(N)=O [Example 460] (H-Y[Aib]QGT[αMePhe(2-F)]TSD[4Pal][αMeS]I[αMeL]LD[Orn]K([AEEA-γGlu-C18 diacid])AQ[Aib][Orn]FI[dE]YLLEGGPSSGEPPPE-NH2)
